According to patent US20230243822A1, “MOLECULAR DISEASE PROFILE AND USE THEREOF FOR MONITORING AND TREATING RHEUMATAOID ARTHRITIS” (JANSSEN BIOTECH, INC., priority 2020, published 2023):

Key:
[1] = system: 4-analyte M-DP panel (CRP, SAA, CXCL10, CXCL13); test: Pharmacodynamic 4-analyte M-DP score by MSD U-PLEX, CORRONA CERTAIN biorepository serum; format: in vivo, human; details: U-PLEX 4-analyte; for M-DP score GMean decrease: all treated
Protocol: PD M-DP scores for the 4-analyte panel were calculated based on these concentrations of CRP, SAA, CXCL10, and CXCL13.
These samples were not previously evaluated for the M-DP panel development or reduction.

[2] = system: RA patients; details: cited from earlier work
[3] = system: 4-analyte M-DP panel (CRP, CXCL10, CXCL13, SAA); test: Pharmacodynamic M-DP score, 4-analyte panel CRP, CXCL10, CXCL13, SAA (SOMAscan), clinical studies in RA; format: in vivo, human; details: 4-analyte, CNTO1275ARA2001, ustekinumab SC 90 mg or guselkumab SC 50 or 200 mg; for M-DP score mean difference ± SD, Good vs. No / M-DP score mean ± SD, DAS28-CRP response group Good / M-DP score mean ± SD, DAS28-CRP response group Moderate / M-DP score mean ± SD, DAS28-CRP response group No: response at week 24
Text: (§1) Serum samples and data from eight interventional clinical studies with seven different active treatments for RA or placebo treatment were obtained and analyzed: sirukumab (anti-IL-6) and placebo treatments in SIRROUND-M (NCT01689532; Takeuchi T, et al. Arthritis Res Ther. 2018 Mar. 7; 20(1): 42), SIRROUND-D (NCT01604343; Takeuchi T, et al. Ann Rheum Dis. 2017 Dec.; 76(12): 2001-2008), and SIRROUND-T (NCT01606761; Aletaha D, et al. Lancet. 2017 Mar. 25; 389(10075): 1206-1217); sirukumab and adalimumab (anti-TNF-alpha) treatments in SIRROUND-H (NCT02019472; Taylor PC, et al. Ann Rheum Dis. 2018 May; 77(5): 658-666); golimumab (anti-TNF-alpha) treatment in GO-FURTHER (NCT00973479; Weinblatt ME, et al. Ann Rheum Dis. 2013 March; 72(3): 381-9); guselkumab (anti-IL-23p19), ustekinumab (anti-IL-12/IL-23p40), and placebo treatments in CNTO1275ARA2001 (NCT01645280; Cox JD, et al. […]); JNJ-40346527 (colony-stimulating factor-1 inhibitor) and placebo treatments in 40346527ARA2001 (NCT01597739; Genovese MC, et al. J Rheumatol. 2015 October; 42(10): 1752-60). Plasma samples were obtained from the RA-MAP TACERA study (Cope AP, et al. Nat Rev Rheumatol. 2018 January; 14(1): 53-60) before (baseline) and 6-months after initiation of conventional synthetic disease-modifying anti-rheumatic drugs (csDMARDs). Details of treatment dose groups, concomitant methotrexate use, and previous experience with csDMARDs and biologics are reported in Table 1. The studies were conducted in accordance with the Declaration of Helsinki. The study protocols were reviewed and approved by an independent ethics committee or institutional review board for each study center. Written informed consent was obtained from all patients before study entry. Additional study details and patient characteristics are available in the referenced publications for each study. For SIRROUND-D and SIRROUND-T studies, sets of serum samples from demographically-matched healthy controls were obtained from commercial sources (BioIVT, Westbury, N.Y.).
(§2) Serum samples from baseline (week 0) and the time points indicated in Table 1 were provided for quantification of 1189 serum analytes using the SomaScan v3.1 platform (SomaLogic, Boulder, Colo.; www.somalogic.com), with the exception of RA-MAP TACERA, for which plasma samples were analyzed for 1301 analytes using the SomaScan v3.2 platform. For some studies, a redacted dataset reporting data for a subset of the analytes was obtained. Relative fluorescence unit (RFU) data were sequentially normalized for hybridization controls (internal standards per samples), median signal across all samples (assumes same total protein concentration across sample set), and calibration controls (common sample standards across analysis plates). Samples failed quality control standards defined by Somalogic were excluded from analyses. The normalized RFU values were log2-transformed for subsequent analyses.
(§3) Changes in analyte expression levels were calculated for individual samples as the log2 transform of the ratio of the analyte level at the indicated time point (visit level) over the analyte level at baseline (baseline level) for a given subject, i.e., log 2(visit level/baseline level). Changes in RA disease-associated analytes per sample were summarized using a pharmacodynamic (PD) molecular disease profile (M-DP) score, defined as the median value of the log 2(visit level/baseline level) values for analytes in the defined M-DP analyte set. […] PD M-DP scores in the log 2(visit level/baseline level) scale can be transformed to percent change from baseline, using the transformation: (2^M-DP score−1)×100%.
In selecting the best minimal set of analytes that performs similarly to the full 14-analyte set, analyte sets that results in significant associations between DAS28-CRP EULAR good vs. no response with p<0.05 for each study were prioritized (Table 4). […]

[4] = system: 14-analyte M-DP panel; test: Pharmacodynamic M-DP score, 14-analyte panel (SomaLogic SOMAscan), clinical studies in RA; format: in vivo, human; details: for M-DP score mean difference ± SD, Good vs. No / M-DP score mean ± SD, DAS28-CRP response group Good / M-DP score mean ± SD, DAS28-CRP response group Moderate / M-DP score mean ± SD, DAS28-CRP response group No: response at week 24
Text: as §1, §2, §3
Statistical analyses were performed on log2-transformed data, for either normalized Relative fluorescence unit (RFU) datasets or within-subject fold/baseline datasets. Significance of differences between groups was evaluated using General Linear Models, with t-tests when comparing two groups. […]

[5] = CERTAIN Biorepository RA patients
[6] = CNTO1275ARA2001, score at week 4, ustekinumab SC 90 mg or guselkumab SC 50 or 200 mg
[7] = CNTO1275ARA2001, score at week 28, ustekinumab SC 90 mg or guselkumab SC 50 or 200 mg

rituximab
M-DP score GMean decrease ([1]; 3-months): 30% | M-DP score GMean decrease ([1]; 6-months): 36% | M-DP score mean ± SD, 6-month DAS28-CRP response group Good ([1]; score at month 3M): −0.44 ± 1.13 [7] log2 (fold/baseline) | M-DP score mean ± SD, 6-month DAS28-CRP response group Moderate ([1]; score at month 3M): −0.71 ± 1.62 [4] log2 (fold/baseline) | M-DP score mean ± SD, 6-month DAS28-CRP response group No ([1]; score at month 3M): −0.23 n.a. [1] log2 (fold/baseline) | M-DP score mean ± SD, All treated ([1]; score at month 3M): −0.51 ± 1.20 [12] log2 (fold/baseline) | M-DP score mean ± SD, 6-month DAS28-CRP response group Good ([1]; score at month 6M): −0.96 ± 0.79 [7]* log2 (fold/baseline) | M-DP score mean ± SD, 6-month DAS28-CRP response group Moderate ([1]; score at month 6M): −0.24 ± 1.23 [4] log2 (fold/baseline) | M-DP score mean ± SD, 6-month DAS28-CRP response group No ([1]; score at month 6M): −0.01 n.a. [1] log2 (fold/baseline) | M-DP score mean ± SD, All treated ([1]; score at month 6M): −0.64 ± 0.95 [12] * log2 (fold/baseline) | EULAR DAS28-CRP clinical response rate, good response [2, 5]: 50% | EULAR DAS28-CRP clinical response rate, moderate response [2, 5]: 32% | EULAR DAS28-CRP clinical response rate, no response [2, 5]: 18%

guselkumab [reference compound]
clinical efficacy in the underlying clinical studies ([2]; RA patients): not clinically efficacious | M-DP score mean ± SD, All treated ([3]; score at week 4): −0.12 ± 0.39 log2 (fold/baseline) | M-DP score mean difference ± SD, Good vs. No ([3]; score at week 4): −0.11 ± 0.33 (0.4781) log2 (fold/baseline) | M-DP score mean ± SD, DAS28-CRP response group Good ([3]; score at week 4): −0.19 ± 0.30 log2 (fold/baseline) | M-DP score mean ± SD, DAS28-CRP response group Moderate ([3]; score at week 4): −0.11 ± 0.49 log2 (fold/baseline) | M-DP score mean ± SD, DAS28-CRP response group No ([3]; score at week 4): −0.08 ± 0.35 log2 (fold/baseline) | M-DP score mean ± SD, All treated ([3]; score at week 28): −0.07 ± 0.37 log2 (fold/baseline) | M-DP score mean difference ± SD, Good vs. No ([3]; score at week 28): −0.12 ± 0.38 (0.5645) log2 (fold/baseline) | M-DP score mean ± SD, DAS28-CRP response group Good ([3]; score at week 28): −0.12 ± 0.38 log2 (fold/baseline) | M-DP score mean ± SD, DAS28-CRP response group Moderate ([3]; score at week 28): −0.10 ± 0.39 log2 (fold/baseline) | M-DP score mean ± SD, DAS28-CRP response group No ([3]; score at week 28): −0.01 ± 0.38 log2 (fold/baseline) | M-DP score mean ± SD, All treated [4, 6]: −0.01 ± 0.19 log2 (fold/baseline) | M-DP score mean difference ± SD, Good vs. No [4, 6]: 0.00 ± 0.19 log2 (fold/baseline) | M-DP score mean ± SD, DAS28-CRP response group Good [4, 6]: −0.04 ± 0.19 log2 (fold/baseline) | M-DP score mean ± SD, DAS28-CRP response group Moderate [4, 6]: 0.02 ± 0.20 log2 (fold/baseline) | M-DP score mean ± SD, DAS28-CRP response group No [4, 6]: −0.04 ± 0.19 [12] log2 (fold/baseline) | M-DP score mean ± SD, All treated [4, 7]: −0.03 ± 0.26 log2 (fold/baseline) | M-DP score mean difference ± SD, Good vs. No [4, 7]: −0.03 ± 0.21 log2 (fold/baseline) | M-DP score mean ± SD, DAS28-CRP response group Good [4, 7]: −0.08 ± 0.10 log2 (fold/baseline) | M-DP score mean ± SD, DAS28-CRP response group Moderate [4, 7]: 0.01 ± 0.34 log2 (fold/baseline) | M-DP score mean ± SD, DAS28-CRP response group No [4, 7]: −0.05 ± 0.25 [12] log2 (fold/baseline) | GMean M-DP scores, change ([4]; week 4 or latest time point evaluated (weeks 28, 28, and 12, respectively)): not decreased
